Assay results: US20250134994A1, “IMMUNOGENIC MRNA DELIVERY VEHICLES” (Corner Therapeutics, Inc., priority 2022, published 2025)

How the values were obtained:
Format in all cases: cell-based
canine PBMCs = test: IL-1β secretion by canine PBMCs (ELISA); settings: two days in culture, R848 1 μg/mL, 22:0 LYSO PC 82.5 μM, concentration per mL and fold change per donor relative to R848 alone
Procedure: (§1) Isolation of PBMCs from Human and Canine Whole Blood. PBMCs were isolated from whole blood using density gradient centrifugation with Ficoll-Paque PLUS (Cytivia). Whole blood was diluted 1:1 with PBS, layered on top of Ficoll-Paque PLUS and centrifuged at 1000×g for 30 minutes at room temperature. PBMCs were collected, washed twice in PBS, and incubated with Ack lysis buffer (Lonza) to remove any remaining red blood cells.
(§2) Cell Culture and Stimulation. Immediately following isolation, PBMCs were plated in RPMI medium containing 10% FBS, 50 units/mL penicillin, […] streptomycin, 2 mM L-glutamine, 1 mM sodium pyruvate, and […] beta-mercaptoethanol (R10 media). […]
(§3) Endpoint Analyses. […] Half of the media volume in the wells was collected for cytokine quantification by Enzyme-Linked Immunosorbent Assay (ELISA) or Lumit™ Bioluminescent assay, while the remaining media and cells were used to quantify cell viability by assessing metabolic activity.
(§4) Quantification of Cytokine Secretion. IL-1β secretion from human PBMCs was assessed using one of the following kits: ELISA MAX Deluxe Set Human IL-1β kit (Biolegend), Invitrogen Human IL-1β kit, or the Lumit™ Human IL-1β Immunoassay (Promega). IFNγ secretion from human PBMCs was assessed using the ELISA MAX Deluxe Set Human IFNγ (Biolegend) and TNFα secretion from human PBMCs was assessed using the Human TNFα Uncoated ELISA kit (Invitrogen). […]

human PBMCs [1] = test: IFNγ secretion by human PBMCs (ELISA); settings: two days post-hyperactivation
Procedure: as §1, §2, §3, §4

human PBMCs [2] = test: IL-1β secretion by human PBMCs (ELISA or Lumit); settings: two days in culture, R848 1 μg/mL
Procedure: as §1, §2, §3, §4

## Nc1nc2c(ncn2[C@@H]2O[C@@H]3COP(=O)(O)O[C@H]4[C@@H](O)[C@H](n5cnc6c(N)ncnc65)O[C@@H]4COP(=O)(O)O[C@@H]2[C@@H]3O)c(=O)[nH]1 [2′3′cGAMP, 2′3′ cGAMP, reference compound]
Canine PBMCs
  IL-1β secretion: neither GM-CSF nor 2′3′cGAMP induced significant IL-1β secretion
Human PBMCs [1]
  fold change per donor in IFNγ secretion relative to R848 alone: neither GM-CSF nor 2′3′cGAMP elicited a substantial fold change

## GM-CSF: human GM-CSF (Peprotech), innate agonist added at 10 ng/mL
Canine PBMCs
  IL-1β secretion: neither GM-CSF nor 2′3′cGAMP induced significant IL-1β secretion
Human PBMCs [1]
  fold change per donor in IFNγ secretion relative to R848 alone: neither GM-CSF nor 2′3′cGAMP elicited a substantial fold change
Human PBMCs [2]
  IL-1β secretion: did not induce levels of IL-1β secretion from human PBMCs significantly above background levels
